The record followed here is ChEMBL document CHEMBL4699544, “Design and synthesis of Coenzyme A analogues as Aurora kinase A inhibitors: An exploration of the roles of the pyrophosphate and pantetheine moieties” (Bioorg Med Chem, 2020).

Structures are written as SMILES.

One assay concerns the target T1, Aurora kinase A (Homo sapiens, UniProt O14965).
T1 sequence (O14965 whole entry): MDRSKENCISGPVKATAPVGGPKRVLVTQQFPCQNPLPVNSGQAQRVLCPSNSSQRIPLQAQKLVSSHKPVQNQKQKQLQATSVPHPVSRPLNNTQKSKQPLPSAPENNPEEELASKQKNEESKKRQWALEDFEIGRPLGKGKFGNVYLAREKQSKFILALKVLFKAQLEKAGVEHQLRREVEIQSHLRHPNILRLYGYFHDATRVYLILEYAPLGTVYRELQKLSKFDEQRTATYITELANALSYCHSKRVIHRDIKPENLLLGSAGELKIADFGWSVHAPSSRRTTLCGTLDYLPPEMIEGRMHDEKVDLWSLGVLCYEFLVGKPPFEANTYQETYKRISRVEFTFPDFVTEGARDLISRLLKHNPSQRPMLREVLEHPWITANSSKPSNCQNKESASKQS
Description: Inhibition of recombinant Aurora A (unknown origin) using myelin basic protein as substrate incubated for 30 mins in presence of DTT by [gamma-33P]-ATP based radioactive filter binding assay.
In the case of `CC(C)(COC(=O)CCC(=O)OC[C@@H]1O[C@H](n2cnc3c(N)ncnc32)[C@@H](O)[C@H]1O)[C@@H](O)C(=O)NCCC(=O)NCCS`, the IC50 (as a rule, the concentration that inhibits the measured activity by half) is 117 µM.

A further assay addresses T1, Aurora kinase A. Description: Inhibition of recombinant Aurora A (unknown origin) using myelin basic protein as substrate incubated for 30 mins in presence of DTT by [gamma-33P]-ATP based radioactive filter binding assay.
As for `CC(C)(COC(=O)CCC(=O)OC[C@@H]1O[C@H](n2cnc3c(N)ncnc32)[C@@H](O)[C@H]1O)[C@@H](O)C(=O)NCCC(=O)NCCS`, the IC50 was 117 µM.

The next assay has as its target T1, Aurora kinase A. Description: Inhibition of recombinant Aurora A (unknown origin) using myelin basic protein as substrate incubated for 30 mins in presence or absence of DTT by [gamma-33P]-ATP based radioactive filter binding assay.
On to `CC(C)(COP(=O)(O)OP(=O)(O)OC[C@@H]1O[C@H](n2cnc3c(N)ncnc32)[C@@H](O)[C@H]1O)[C@H](O)C(=O)NCCC(=O)NCCS`, for which the IC50 turned out to be 17 µM.

In the case of `CCCNC(=O)CCNC(=O)[C@H](O)C(C)(C)COC(=O)CC(=O)OC[C@@H]1O[C@H](n2cnc3c(N)ncnc32)[C@@H](O)[C@H]1O`, the 50% inhibitory concentration (IC50) was found to be 1300 µM. In the case of `CCCNC(=O)CCNC(=O)[C@H](O)C(C)(C)COC(=O)CCCC(=O)OC[C@@H]1O[C@H](n2cnc3c(N)ncnc32)[C@@H](O)[C@H]1O`, the IC50 came to 542 µM. On to `CNC(=O)[C@H](O)C(C)(C)COC(=O)CCC(=O)OC[C@@H]1O[C@H](n2cnc3c(N)ncnc32)[C@@H](O)[C@H]1O`, for which the IC50 was determined as 1300 µM.

Consider `CCCNC(=O)CCNC(=O)[C@H](O)C(C)(C)COC(=O)CCC(=O)OC[C@@H]1O[C@H](n2cnc3c(N)ncnc32)[C@@H](O)[C@H]1O`, for which the IC50 turned out to be 497 µM. Take `CC(C)(COP(=O)(O)OP(=O)(O)OC[C@@H]1O[C@H](n2cnc3c(N)ncnc32)[C@@H](O)[C@H]1OP(=O)(O)O)[C@H](O)C(=O)NCCC(=O)NCCS`: the IC50 came out at 5 µM.

As to `CCCNC(=O)CCNC(=O)[C@H](O)C(C)(C)COC(=O)CC(=O)NC[C@@H]1O[C@H](n2cnc3c(N)ncnc32)[C@@H](O)[C@H]1O`, the IC50 was determined as 1100 µM. On to `Nc1ncnc2c1ncn2[C@H]1O[C@@H](COC(=O)CC(=O)O)[C@H](O)[C@@H]1O`, for which the IC50 stood at 420 µM. For the compound `CCNC(=O)CCNC(=O)[C@@H](O)C(C)(C)COP(=O)(O)OP(=O)(O)OC[C@@H]1O[C@H](n2cnc3c(N)ncnc32)[C@@H](O)[C@H]1OP(=O)(O)O`, the IC50 is 160 µM. As for `Nc1ncnc2c1ncn2[C@H]1O[C@@H](CNC(=O)CC(=O)O)[C@H](O)[C@@H]1O`, the IC50 amounted to 910 µM. Still for that read-out and setting: with `CNC(=O)CCNC(=O)[C@H](O)C(C)(C)COC(=O)CCC(=O)OC[C@@H]1O[C@H](n2cnc3c(N)ncnc32)[C@@H](O)[C@H]1O` the figure was 1400 µM. Consider `CC(C)(COC(=O)CCC(=O)OC[C@@H]1O[C@H](n2cnc3c(N)ncnc32)[C@@H](O)[C@H]1O)[C@@H](O)C(=O)NCCC(=O)NCCS`, for which the IC50 came out at 83 µM. Regarding `CC(C)(C)COC(=O)CCC(=O)OC[C@@H]1O[C@H](n2cnc3c(N)ncnc32)[C@@H](O)[C@H]1O`, the IC50 was found to be 430 µM.
